In general, Ki refers to the equilibrium dissociation constant of an inhibitor or competing ligand from its target.

Drawing on ChEMBL document CHEMBL1157469, “Characterization of the drug binding specificity of rat liver fatty acid binding protein” (J Med Chem, 2008), this text covers Ki for 17 molecules.

Experiment [1] deals with T1, Fatty acid-binding protein, liver (Rattus norvegicus, UniProt P02692).
T1 sequence (P02692 whole entry): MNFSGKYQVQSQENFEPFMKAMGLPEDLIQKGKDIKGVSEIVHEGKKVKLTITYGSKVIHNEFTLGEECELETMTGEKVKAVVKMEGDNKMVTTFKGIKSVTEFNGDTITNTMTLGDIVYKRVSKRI
The experiment can be described thus: Displacement of 1-anilinonaphthalene-8-sulphonic acid from rat recombinant L-FABP high binding affinity site expressed in Escherichia coli BL21 by competitive fluorescence displacement assay.

The target in experiment [2] is T1, Fatty acid-binding protein, liver. As to the kind of experiment: Displacement of 1-anilinonaphthalene-8-sulphonic acid from rat recombinant L-FABP low binding affinity site expressed in Escherichia coli BL21 by competitive fluorescence displacement assay.
Experiment [3] deals with T2, Fatty acid-binding protein, intestinal (Homo sapiens, UniProt P12104).
T2 sequence (P12104 whole entry): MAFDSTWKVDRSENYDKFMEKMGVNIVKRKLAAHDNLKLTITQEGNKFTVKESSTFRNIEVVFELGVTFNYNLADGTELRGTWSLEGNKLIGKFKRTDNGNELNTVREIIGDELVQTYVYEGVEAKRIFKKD
As to the kind of experiment: Displacement of 1-anilinonaphthalene-8-sulphonic acid from I-FABP.

In the case of `CC(=O)Oc1ccccc1C(=O)O` [ASPIRIN], the Ki in experiment [1] turned out to be 348 µM; in experiment [2] it was 3780 µM.

Consider `CC(C)(Oc1ccc(CCNC(=O)c2ccc(Cl)cc2)cc1)C(=O)O` [BEZAFIBRATE], for which the Ki in experiment [3] was determined as 33 µM; in experiment [2] (read-out: Ki) it was 44.4 µM.

Consider `CCOC(=O)C(C)(C)Oc1ccc(Cl)cc1` [CLOFIBRATE], for which the inhibitory constant (Ki) in experiment [1] (read-out: Ki) amounted to 6.92 µM.

For the molecule `C[C@@H]1C[C@H]2[C@@H]3CCC4=CC(=O)C=C[C@]4(C)[C@@]3(F)[C@@H](O)C[C@]2(C)[C@@]1(O)C(=O)CO` [DEXAMETHASONE], the inhibitory constant (Ki) in experiment [1] (read-out: Ki) was 22.1 µM; in experiment [2] (read-out: Ki), 41.3 µM.

In the case of `O=C(O)Cc1ccccc1Nc1c(Cl)cccc1Cl` [DICLOFENAC], the results for the Ki in experiment [1] (read-out: Ki) and in experiment [2] (read-out: Ki) were 3.22 µM and 35.4 µM, respectively.

For the molecule `CC(C)OC(=O)C(C)(C)Oc1ccc(C(=O)c2ccc(Cl)cc2)cc1` [FENOFIBRATE], the inhibition constant (Ki) in experiment [1] (read-out: Ki) stood at 0.024 µM; in experiment [2] (read-out: Ki), 0.405 µM.

Consider `CC(C)(Oc1ccc(C(=O)c2ccc(Cl)cc2)cc1)C(=O)O` [FENOFIBRIC ACID], for which the Ki in experiment [1] (read-out: Ki) was determined as 0.334 µM; in experiment [3], 1 µM; in experiment [2] (read-out: Ki), 27.5 µM.

As to `CC(C(=O)O)c1ccc(-c2ccccc2)c(F)c1` (stereo not given) [FLURBIPROFEN], the inhibitory constant (Ki) stood at 1.18 µM in experiment [1] (read-out: Ki), 26 µM in experiment [3] and 222 µM in experiment [2] (read-out: Ki).

In the case of `Cc1ccc(C)c(OCCCC(C)(C)C(=O)O)c1` [GEMFIBROZIL], the Ki in experiment [1] (read-out: Ki) stood at 1.86 µM; in experiment [2] (read-out: Ki), 179 µM.

With `CC(C)Cc1ccc(C(C)C(=O)O)cc1` (stereo not given) [IBUPROFEN], the inhibition constant (Ki) in experiment [1] (read-out: Ki) was 47.6 µM; in experiment [2] (read-out: Ki), 448 µM.

`CC(C(=O)O)c1ccc(N2Cc3ccccc3C2=O)cc1` (stereo not given) [INDOPROFEN]: the Ki was determined as 1.27 µM in experiment [1] (read-out: Ki) and 161 µM in experiment [2] (read-out: Ki).

As for `O=C(c1ccccc1)c1ccc2n1CCC2C(=O)O` (stereo not given) [KETOROLAC], the inhibitory constant (Ki) in experiment [1] (read-out: Ki) stood at 11.6 µM; in experiment [2] (read-out: Ki) it was 119 µM.

`O=C1Nc2ccc(Cl)cc2C(c2ccccc2Cl)=NC1O` (stereo not given) [LORAZEPAM]: the Ki in experiment [1] (read-out: Ki) was 12.9 µM; in experiment [2] (read-out: Ki) it was 140 µM.

Take `Cc1ccc(Cl)c(Nc2ccccc2C(=O)O)c1Cl` [MECLOFENAMIC ACID]: the inhibition constant (Ki) in experiment [1] (read-out: Ki) stood at 0.379 µM; in experiment [3], 8.9 µM; in experiment [2] (read-out: Ki) it was 0.256 µM.

As for `CC(C)(C)NCC(O)COc1cccc2c1CC(O)C(O)C2` (stereo not given) [NADOLOL], the inhibition constant Ki in experiment [1] (read-out: Ki) is 2310 µM.

For `C[C@]12C=CC(=O)C=C1CC[C@@H]1[C@@H]2[C@@H](O)C[C@@]2(C)[C@H]1CC[C@]2(O)C(=O)CO` [PREDNISOLONE], the Ki in experiment [1] (read-out: Ki) is 2.66 µM; in experiment [2] (read-out: Ki), 101 µM.

`CC(=O)[C@H]1CC[C@H]2[C@@H]3CCC4=CC(=O)CC[C@]4(C)[C@H]3CC[C@]12C` [PROGESTERONE]: the inhibition constant Ki in experiment [1] (read-out: Ki) was determined as 0.027 µM; in experiment [3] it was 20 µM.
